IC50 data for 25 compounds are collected here from patent US20130090333A1, “BENZOXAZINE DERIVATIVES AS CRAC MODULATORS” (Hoffmann-La Roche Inc., priority 2011, published 2013).

The first experiment relates to IL-2 production in Jurkat cell (ATCC). Briefly: Jurkat IL-2 Production Assay. The format is cell-based. The settings on record: Homo sapiens, Jurkat cells, 18-20 h incubation, serum/stimulant variant (1% FBS/PHA or 30% FBS/PMA+ionomycin) not given. As to the method:
Jurkat IL-2 Production Assay Cell: Jurkat cell (ATCC) was grown in RPMI 1640 with 10% FBS and 1% penicillin/streptomycin. The cell density was kept at 1.2˜1.8×10^6/mL in culture flask before seeding into culture plate, and the cell density in the plate was 0.5×10^6/2004/well. Culture Media: RPMI 1640 with 1% FBS or 30% FBS for high serum assay. Test Compound: Serial dilution was done in 100% DMSO, and intermediate dilution was done with RPMI 1640 medium with 1% FBS. The DMSO final concentration in culture well was 0.25%. Stimulant: PHA (Sigma#L9017-10MG) was used for the assay with 1% FBS in culture medium, and added after 10 minutes exposure of cell to compound/DMSO. The PHA final concentration in culture well was 5 μg/mL. PMA (Sigma# P-8139 5MG)/Ionomycin (Sigma# I0634-5MG) was used for the assay with 30% FBS in culture medium, and added at same time point as the 1% FBS culture assay. The final concentration of PMA was 50 ng/mL, and Ionomycin final concentration was 500 ng/mL. Incubation: At 37° C. with 5% CO2 and 95% humidity for 18 h˜20 h. IC50: IC50 was calculated with the data analysis software XLfit4, General Pharmacology model 251.
`COc1cc(C)c(-c2ccc3c(c2)OCC(c2ccccc2Cl)N3)cn1` (stereo not shown) [Example 35, 3-(2-chlorophenyl)-7-(6-methoxy-4-methylpyridin-3-yl)-3,4-dihydro-2H-benzo[b][1,4]oxazine] showed an IC50 of 0.73 µM. On the same count and under the same terms, to `Cc1sc(-c2cccnc2)nc1-c1ccc2c(c1)OCC(c1ccccc1Cl)N2` (stereo not shown) [Example 36, 3-(2-chlorophenyl)-7-(5-methyl-2-(pyridin-3-yl)thiazol-4-yl)-3,4-dihydro-2H-benzo[b][1,4]oxazine] belongs 0.09 µM; to `CCS(=O)(=O)c1cc(C)c(-c2ccc3c(c2)OCC(c2c(F)cccc2F)N3)cn1` (stereo not shown) [Example 22, 3-(2,6-difluorophenyl)-7-(6-(ethylsulfonyl)-4-methylpyridin-3-yl)-3,4-dihydro-2H-benzo[b][1,4]oxazine], 0.09 µM; to `CCc1sc(-c2cnccn2)nc1-c1ccc2c(c1)OCC(c1ccccc1Cl)N2` (stereo not shown) [Example 37, 3-(2-chlorophenyl)-7-(5-ethyl-2-(pyrazin-2-yl)thiazol-4-yl)-3,4-dihydro-2H-benzo[b][1,4]oxazine], 0.07 µM. On the same count and under the same terms, with `Cc1sc(-c2ccccn2)nc1-c1ccc2c(c1)OCC(c1c(F)cccc1F)N2` (stereo not shown) [Example 11, 3-(2,6-Difluoro-phenyl)-7-(5-methyl-2-pyridin-2-yl-thiazol-4-yl)-3,4-dihydro-2H-benzo[1,4]oxazine] the figure was 0.12 µM; with `Cn1nc(C(F)(F)F)cc1-c1ccc2c(c1)OCC(c1ccccc1Cl)N2` (stereo not shown) [Example 34, 3-(2-chlorophenyl)-7-(1-methyl-3-(trifluoromethyl)-1H-pyrazol-5-yl)-3,4-dihydro-2H-benzo[b][1,4]oxazine], 0.35 µM; with `Cn1nc(C(F)(F)F)cc1-c1ccc2c(c1)OCC(c1c(F)cccc1F)N2` (stereo not shown) [Example 5, 3-(2,6-Difluoro-phenyl)-7-(2-methyl-5-trifluoromethyl-2H-pyrazol-3-yl)-3,4-dihydro-2H-benzo[1,4]oxazine], 0.1 µM. Same read-out and setting: with `COc1cc(C)c(-c2ccc3c(c2)OCC(c2c(F)cccc2F)N3)cn1` (stereo not shown) [Example 21, 3-(2,6-Difluoro-phenyl)-7-(6-methoxy-4-methyl-pyridin-3-yl)-3,4-dihydro-2H-benzo[1,4]oxazine] the figure was 0.28 µM; with `Cn1nc(-c2cccnc2)nc1-c1ccc2c(c1)OCC(c1c(F)cccc1F)N2` (stereo not shown) [Example 9, 3-(2,6-Difluoro-phenyl)-7-(2-methyl-5-pyridin-3-yl-2H-[1,2,4]triazol-3-yl)-3,4-dihydro-2H-benzo[1,4]oxazine], 0.31 µM; with `CCn1nc(-c2cnccn2)cc1-c1ccc2c(c1)OCC(c1c(F)cccc1F)N2` (stereo not shown) [Example 8, 3-(2,6-Difluoro-phenyl)-7-(2-ethyl-5-pyrazin-2-yl-2H-pyrazol-3-yl)-3,4-dihydro-2H-benzo[1,4]oxazine], 0.11 µM. Compound `Cc1ccc(C(F)(F)F)cc1-c1ccc2c(c1)OCC(c1c(F)cccc1Cl)N2` (stereo not shown) [Example 30, 3-(2-Chloro-6-fluoro-phenyl)-7-(2-methyl-5-trifluoromethyl-phenyl)-3,4-dihydro-2H-benzo[1,4]oxazine] had an IC50 of 0.22 µM. In the case of `Cc1cc(C(F)(F)F)ccc1-c1ccc2c(c1)OCC(c1c(F)cccc1F)N2` (stereo not shown) [Example 1, 3-(2,6-Difluoro-phenyl)-7-(2-methyl-4-trifluoromethyl-phenyl)-3,4-dihydro-2H-benzo[1,4]oxazine], the IC50 turned out to be 0.12 µM.

For the compound `Cc1ccc(C(F)(F)F)cc1-c1ccc2c(c1)OCC(c1c(F)cccc1F)N2` (stereo not shown) [Example 4, 3-(2,6-difluoro-phenyl)-7-(2-methyl-5-trifluoromethyl-phenyl)-3,4-dihydro-2H-benzo[1,4]oxazine], the IC50 was 0.1 µM. For `Cc1cc(-c2nnn(C)n2)ncc1-c1ccc2c(c1)OCC(c1c(F)cccc1F)N2` (stereo not shown) [Example 27, 3-(2,6-difluorophenyl)-7-(4-methyl-6-(2-methyl-2H-tetrazol-5-yl)pyridin-3-yl)-3,4-dihydro-2H-benzo[b][1,4]oxazine], the IC50 came out at 0.67 µM.

For the compound `COc1cc(C)c(-c2ccc3c(c2)OCC(c2c(F)cccc2Cl)N3)cn1` (stereo not shown) [Example 33, 3-(2-Chloro-6-fluoro-phenyl)-7-(6-methoxy-4-methyl-pyridin-3-yl)-3,4-dihydro-2H-benzo[1,4]oxazine], the IC50 worked out at 0.38 µM.

For the compound `Cc1sc(-c2cnccn2)nc1-c1ccc2c(c1)OCC(c1c(F)cccc1F)N2` (stereo not shown) [Example 15, 3-(2,6-difluorophenyl)-7-(5-methyl-2-(pyrazin-2-yl)thiazol-4-yl)-3,4-dihydro-2H-benzo[b][1,4]oxazine], the IC50 stood at 0.06 µM. Still for that read-out and setting: to `Cc1ncc(-c2cc(C)c(-c3ccc4c(c3)OCC(c3c(F)cccc3F)N4)cn2)s1` (stereo not shown) [Example 26, 3-(2,6-difluorophenyl)-7-(4-methyl-6-(2-methylthiazol-5-yl)pyridin-3-yl)-3,4-dihydro-2H-benzo[b][1,4]oxazine] belongs 0.21 µM; to `Cc1cc(-c2cnc(N)nc2)ncc1-c1ccc2c(c1)OCC(c1c(F)cccc1F)N2` (stereo not shown) [Example 25, 5-(5-(3-(2,6-difluorophenyl)-3,4-dihydro-2H-benzo[b][1,4]oxazin-7-yl)-4-methylpyridin-2-yl)pyrimidin-2-amine], 0.66 µM.

The compound `Cc1cc(-c2ncco2)ncc1-c1ccc2c(c1)OCC(c1c(F)cccc1F)N2` (stereo not shown) [Example 24, 3-(2,6-Difluoro-phenyl)-7-(4-methyl-6-oxazol-2-yl-pyridin-3-yl)-3,4-dihydro-2H-benzo[1,4]oxazine] had an IC50 of 0.34 µM. The same measure, in the same setting: with `Cc1cc(Cl)ncc1-c1ccc2c(c1)OCC(c1c(F)cccc1F)N2` (stereo not shown) [Example 23, 7-(6-Chloro-4-methyl-pyridin-3-yl)-3-(2,6-difluoro-phenyl)-3,4-dihydro-2H-benzo[1,4]oxazine] the figure was 0.32 µM.

The experiment is the same for the next values; noted with them: Jurkat cells, 18-20 h incubation, serum/stimulant variant (1% FBS/PHA or 30% FBS/PMA+ionomycin) not given.
On to “(S)-3-(2,6-Difluoro-phenyl)-7-(2-methyl-4-trifluoromethyl-phenyl)-3,4-dihydro-2H-benzo[1,4]oxazine or (R)-3-(2,6-Difluoro-phenyl)-7-(2-methyl-4-trifluoromethyl-phenyl)-3,4-dihydro-2H-benzo[1,4]oxazine [Example 3]”, for which the IC50 was determined as 0.35 µM.

The next experiment relates to T cell IL-2 production in human whole blood. Briefly: Human Whole Blood Assay (inhibition of T cell IL-2 production). The class given is cell-based. To be noted: T-cell, 10 μM Thapsigargin overnight, plasma IL-2 by AlphaLISA, read-out: HWB. Here is the method:
Inhibition of T cell IL-2 production CRAC compounds were tested in human whole blood from normal donors. 200 μl of human whole blood was aliquoted into each well of a round bottom 96 well plate. Concentration-response curves were generated for test compounds and CsA (as controls) by performing serial dilutions of the compounds and incubating each concentration in a single well for 30 min (experiment was performed in triplicate). Following incubation, the blood was stimulated with 10 μM Thapsigargin (SIGMA) overnight at 37° C. IL-2 concentrations in the plasma were determined by AlphaLISA IL-2 assay (Perkin Elmer). Data analysis was performed using GraphPad PRISMS.
In general terms: In Alpha technology, singlet oxygen from a donor bead excites a nearby acceptor bead.
Regarding `Cc1ccc(-c2ncco2)cc1-c1ccc2c(c1)OCC(c1c(F)cccc1F)N2` (stereo not shown) [Example 28, 3-(2,6-Difluoro-phenyl)-7-(2-methyl-5-oxazol-2-yl-phenyl)-3,4-dihydro-2H-benzo[1,4]oxazine], the IC50 was 1 µM. Consider `Cc1sc(-c2ccccn2)nc1-c1ccc2c(c1)OCC(c1c(F)cccc1F)N2` (stereo not shown) [Example 11, 3-(2,6-Difluoro-phenyl)-7-(5-methyl-2-pyridin-2-yl-thiazol-4-yl)-3,4-dihydro-2H-benzo[1,4]oxazine], for which the IC50 amounted to 1.82 µM. Still for that read-out and setting: to `CCc1sc(-c2ccccn2)nc1-c1ccc2c(c1)OCC(c1c(F)cccc1F)N2` (stereo not shown) [Example 13, 3-(2,6-Difluoro-phenyl)-7-(5-ethyl-2-pyridin-2-yl-thiazol-4-yl)-3,4-dihydro-2H-benzo[1,4]oxazine] belongs 1.94 µM; to `Cn1nc(C(F)(F)F)cc1-c1ccc2c(c1)OCC(c1c(F)cccc1F)N2` (stereo not shown) [Example 5, 3-(2,6-Difluoro-phenyl)-7-(2-methyl-5-trifluoromethyl-2H-pyrazol-3-yl)-3,4-dihydro-2H-benzo[1,4]oxazine], 0.91 µM; to `Cc1ccc(C(F)(F)F)cc1-c1ccc2c(c1)OCC(c1c(F)cccc1F)N2` (stereo not shown) [Example 4, 3-(2,6-difluoro-phenyl)-7-(2-methyl-5-trifluoromethyl-phenyl)-3,4-dihydro-2H-benzo[1,4]oxazine], 3.22 µM.

With `CCc1cc(-c2nc(-c3ccc4c(c3)OCC(c3c(F)cccc3F)N4)c(CC)s2)ccn1` (stereo not shown) [Example 18, 3-(2,6-Difluoro-phenyl)-7-[5-ethyl-2-(2-ethyl-pyridin-4-yl)-thiazol-4-yl]-3,4-dihydro-2H-benzo[1,4]oxazine], the IC50 was found to be 6.15 µM. On the same count and under the same terms, with `CCc1sc(-c2ncco2)nc1-c1ccc2c(c1)OCC(c1c(F)cccc1F)N2` (stereo not shown) [Example 19, 3-(2,6-Difluoro-phenyl)-7-(5-ethyl-2-oxazol-2-yl-thiazol-4-yl)-3,4-dihydro-2H-benzo[1,4]oxazine] the figure was 0.65 µM.
